Measurements as given in US20250127937A1, “FAP INHIBITOR” (UNIVERSITÄT HEIDELBERG, priority 2018, published 2025).

What was measured:
Capan-2 tumor xenografts [1] = test: Dynamic small-animal PET, two-tissue compartment model, Capan-2 xenografts; format: in vivo, mouse; details: 68Ga-FAPI-02, Capan-2, − comp.
Experimental: (§1) For in vivo experiments, 8 week old BALB/c nu/nu mice (Charles River) were subcutaneously inoculated into the right trunk with 5×10^6 with HT-1080-FAP, Capan-2 or SK-LMS-1 cells, respectively. When the size of the tumor reached approximately 1 cm^3, the radiolabeled compound was injected via the tail vein (˜10 MBq for small-animal PET imaging; ˜1 MBq for organ distribution). PET imaging was performed up to 140 min after intravenous injection of 1 MBq of Ga-68 labeled compound per mouse using the Inveon PET small-animal PET scanner (Siemens). Images were reconstructed iteratively using the 3D-OSEM+MAP method and were converted to standardized uptake value (SUV) images. Quantification was done using a ROI technique and expressed as SUV mean. For organ distribution of Lu-177 labeled compound (approx. […] per mouse), the animals (n=3 for each time point) were sacrificed after indicated time points (from 30 min to 24 h). The distributed radioactivity was measured in all dissected organs and in blood using a γ-counter (Cobra Autogamma, Packard). The values are expressed as percentage of injected dose per gram of tissue (% ID/g).
(§2) For pharmakokinetic modeling the transport constant K1 and the rate constants k2-k4 were calculated using a two-tissue compartment model implemented in the PMOD software, taking into account the vascular fraction (vB), which is associated with the volume of blood exchanging with tissue in a VOI. The rate constants that describe the compartmental fluxes include k1 (binding to the receptor), k2 (detachment) as well as k3 (internalization) and k4 (efflux) in the tumor tissue. In this model the fractional volume of distribution (DV=K1/k2) is the proportion of the region of interest in which […] is distributed.

human CD26 = human CD26 (Homo sapiens (Human), UniProt P27487); test: Radioligand binding to CD26 expressing cells (HEK-CD26); details: 60 min incubation
human CD26, sequence (P27487 whole entry): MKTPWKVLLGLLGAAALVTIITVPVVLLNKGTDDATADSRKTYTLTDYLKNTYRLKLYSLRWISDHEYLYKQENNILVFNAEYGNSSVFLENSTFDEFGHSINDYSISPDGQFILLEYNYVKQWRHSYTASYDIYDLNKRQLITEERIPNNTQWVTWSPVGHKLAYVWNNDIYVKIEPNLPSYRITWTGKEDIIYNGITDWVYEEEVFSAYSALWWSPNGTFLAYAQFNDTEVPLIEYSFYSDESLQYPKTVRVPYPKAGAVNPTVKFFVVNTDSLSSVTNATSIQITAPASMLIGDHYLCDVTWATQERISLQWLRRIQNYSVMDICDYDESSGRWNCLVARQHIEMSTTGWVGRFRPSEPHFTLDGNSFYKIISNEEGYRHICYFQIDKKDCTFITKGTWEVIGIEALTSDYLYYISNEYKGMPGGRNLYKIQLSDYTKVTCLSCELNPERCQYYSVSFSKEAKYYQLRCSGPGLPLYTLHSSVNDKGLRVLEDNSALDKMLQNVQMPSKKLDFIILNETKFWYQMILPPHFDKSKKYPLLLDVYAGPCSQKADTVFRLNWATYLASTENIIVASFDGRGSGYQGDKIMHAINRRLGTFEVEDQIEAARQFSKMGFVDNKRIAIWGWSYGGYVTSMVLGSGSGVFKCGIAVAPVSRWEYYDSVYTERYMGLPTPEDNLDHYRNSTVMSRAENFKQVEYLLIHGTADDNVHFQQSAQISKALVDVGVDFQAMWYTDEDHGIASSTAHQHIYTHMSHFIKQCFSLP
Experimental: In vitro binding studies were performed using the human tumor cell lines BxPC3, Capan-2, MCF-7 (purchased from Sigma Aldrich Chemie GmbH) and SK-LMS-1 (purchased from ATCC) as well as stably transfected FAP-cell lines HT-1080-FAP, HEK-muFAP and the CD26 expressing cell line HEK-CD26 (obtained from Stefan Bauer, NCT Heidelberg). All cells were cultivated in Dulbecco's modified Eagle's medium (DMEM) containing 10% fetal calf serum at 37° C./5% carbon dioxide. For fluorescence internalization experiments, cells were seeded on coverslips and stained with FAPI-02-Atto488 and DAPI for cell nucleus staining. Images were acquired on a laser scanning confocal microscope using a 63× oil immersion objective.
For radioligand binding studies, cells were seeded in 6-well plates and cultivated for 48 h to a final confluence of approx. 80-90% (1.2-2 mio cells/well). The medium was replaced by 1 mL fresh medium without fetal calf serum. The radiolabeled compound was added to the cell culture and incubated for different time intervals ranging from 10 min to 24 h. Competition experiments were performed by simultaneous exposure to unlabeled (10^−5 M to 10^−9 M) and radiolabeled compound for 60 min. […] Radioactivity was determined in a γ-counter (Cobra II, Packard), normalized to 1 mio cells and calculated as percentage of the applied dose (% ID). […]

Capan-2 tumor xenografts [2] = test: Organ distribution ex vivo in Capan-2 tumor bearing nude mice; parameters: species or system mouse; details: Lu-177 labeled, 1 h after i.v., Capan-2, mean ± SD, n = 3
Experimental: as §1

[3] = test system: HT-1080-FAP tumor xenografts; test: Organ distribution ex vivo in HT-1080-FAP tumor bearing nude mice; parameters: species or system mouse
Experimental: as §1

[4] = test system: HT-1080-FAP tumor xenografts; test: Dynamic small-animal PET, two-tissue compartment model, HT-1080-FAP xenografts; format: in vivo, mouse; details: 68Ga-FAPI-02, HT-1080-FAP
Experimental: as §1, §2

HT-1080-FAP cells = test: Efflux experiments in HT-1080-FAP cells; format: cell-based, human; details: after 24 h in compound-free medium
[5] = Lu-177 labeled, 1 h after i.v., HT-1080-FAP, mean ± SD, n = 3

SMILES: N#C[C@@H]1CCCN1C(=O)CNC(=O)c1ccnc2ccc(OCCCN3CCN(C(=O)CN4CCN(CC(=O)O)CCN(CC(=O)O)CCN(CC(=O)O)CC4)CC3)cc12 [FAPI-02]
- Flux (Capan-2 tumor xenografts [1]): 0.03 ml/ccm/min
- Vs (ratio of specific binding concentration to total parent at equilibrium) (Capan-2 tumor xenografts [1]): 0.93 ml/ccm
- Vt (total distribution volume) (Capan-2 tumor xenografts [1]): 1.44 ml/ccm
- k1 (Capan-2 tumor xenografts [1]): 0.08 ml/ccm/min
- k2 (Capan-2 tumor xenografts [1]): 0.16 min⁻¹
- k3 (Capan-2 tumor xenografts [1]): 0.08 min⁻¹
- k4 (Capan-2 tumor xenografts [1]): 0.05 min⁻¹
- vB (vascular fraction) (Capan-2 tumor xenografts [1]): 0.08 l/l
- binding to CD26 expressing cells (% ID) (human CD26): 0.13±0.01%
- Blood uptake (Capan-2 tumor xenografts [2]): 0.83 ± 0.127 % ID/g
- Brain uptake (Capan-2 tumor xenografts [2]): 0.05 ± 0.010 % ID/g
- Heart uptake (Capan-2 tumor xenografts [2]): 0.37 ± 0.031 % ID/g
- Intestines uptake (Capan-2 tumor xenografts [2]): 0.30 ± 0.064 % ID/g
- Kidneys uptake (Capan-2 tumor xenografts [2]): 1.45 ± 0.106 % ID/g
- Liver uptake (Capan-2 tumor xenografts [2]): 0.36 ± 0.015 % ID/g
- Lungs uptake (Capan-2 tumor xenografts [2]): 0.72 ± 0.021 % ID/g
- Muscle uptake (Capan-2 tumor xenografts [2]): 0.94 ± 0.168 % ID/g
- Spleen uptake (Capan-2 tumor xenografts [2]): 0.25 ± 0.015 % ID/g
- Tumor uptake (Capan-2 tumor xenografts [2]): 3.82 ± 0.390 % ID/g
- highest enrichment within the FAP-expressing tumor ([3]; 177Lu labeled, after 1 h): 4.5 % ID/g
- Tumor uptake 1 h ([3]; HT-1080-FAP tumor bearing nude mice, 1 h, mean ± SD, n = 3): 4.5 ± 0.82 % ID/g
- Tumor uptake 4 h ([3]; HT-1080-FAP tumor bearing nude mice, 4 h, mean ± SD, n = 3): 4.0 ± 0.56 % ID/g
- Tumor uptake 24 h ([3]; HT-1080-FAP tumor bearing nude mice, 24 h, mean ± SD, n = 3): 1.12 ± 0.13 % ID/g
- Blood uptake [3, 5]: 1.20 ± 0.178 % ID/g
- Brain uptake [3, 5]: 0.06 ± 0.006 % ID/g
- Heart uptake [3, 5]: 0.56 ± 0.085 % ID/g
- Intestines uptake [3, 5]: 0.31 ± 0.046 % ID/g
- Kidneys uptake [3, 5]: 1.60 ± 0.075 % ID/g
- Liver uptake [3, 5]: 0.45 ± 0.074 % ID/g
- Lungs uptake [3, 5]: 1.02 ± 0.152 % ID/g
- Muscle uptake [3, 5]: 1.17 ± 0.332 % ID/g
- Spleen uptake [3, 5]: 0.38 ± 0.051 % ID/g
- Tumor uptake [3, 5]: 4.51 ± 0.816 % ID/g
- Flux ([4]; + comp.): 0.01 ml/ccm/min
- Vs (ratio of specific binding concentration to total parent at equilibrium) ([4]; + comp.): 0.18 ml/ccm
- Vt (total distribution volume) ([4]; + comp.): 0.48 ml/ccm
- k1 ([4]; + comp.): 0.10 ml/ccm/min
- k2 ([4]; + comp.): 0.32 min⁻¹
- k3 ([4]; + comp.): 0.04 min⁻¹
- k4 ([4]; + comp.): 0.07 min⁻¹
- vB (vascular fraction) ([4]; + comp.): 0.04 l/l
- Flux ([4]; − comp.): 0.03 ml/ccm/min
- Vs (ratio of specific binding concentration to total parent at equilibrium) ([4]; − comp.): 2.31 ml/ccm
- Vt (total distribution volume) ([4]; − comp.): 0.87 ml/ccm
- k1 ([4]; − comp.): 0.07 ml/ccm/min
- k2 ([4]; − comp.): 0.13 min⁻¹
- k3 ([4]; − comp.): 0.1 min⁻¹
- k4 ([4]; − comp.): 0.02 min⁻¹
- vB (vascular fraction) ([4]; − comp.): 0.04 l/l
- retention of the originally accumulated radioactivity (efflux) (HT-1080-FAP cells): 12%
